{
  "source": "patent EP0192611A2",
  "about": "“Acylated hexose derivatives and method for their preparation” (CIBA-GEIGY AG, priority 1985, dated 1986)",
  "tested_on": "Influenza-Viren",
  "assay": "Own studies: prophylaxis and therapy of virus infection in mice infected with influenza viruses",
  "assay_type": "in vivo, Mäuse",
  "details": "per se, without admixed vaccine",
  "text": "Aus der Französischen Patentanmeldung Nr. 74 22 909 mit der Publikationsnummer 2 292 486 sind Huramylpeptide vom Typ der Verbindung N-Acetyl-muramyl-L-alanyl-D-isoglutamin (\"MDP\") bekannt. Diese Verbindungen sind als immunologische Adjuvanzien beschrieben, d.h. sie können in Mischung mit Impfstoffen dazu benützt werden, den Impferfolg zu verbessern. Eigene Untersuchungen, z.B. bei mit Influenza-Viren infizierten Mäusen, haben ergeben, dass N-Acetyl-muramyl-L-alanyl-D-isoglutamin per se, d.h. ohne Beimengung von Impfstoffen, bei der Prophylaxe und Therapie von Virusinfektionen unwirksam ist. Auch ist die Verwendbarkeit strukturell einfacher Muramylpeptide und ihrer Analogen gegen Virusinfektionen bisher nicht beschrieben.",
  "data": [
    {"compound": "CC(=O)N[C@H]1C(O)O[C@H](CO)[C@@H](O)[C@@H]1O[C@H](C)C(=O)N[C@@H](C)C(=O)N[C@H](CCC(=O)O)C(N)=O", "note": "(stereo partly drawn) [N-Acetyl-muramyl-L-alanyl-D-isoglutamin]", "values": [
      {"measurement": "Wirksamkeit bei der Prophylaxe und Therapie von Virusinfektionen", "result": "unwirksam"}
    ]}
  ]
}
